Legend:
[1] = molecular target: T1, Beta-galactosidase (Homo sapiens, UniProt P16278); assay: Inhibition of wild type beta-galactosidase activity in human peripheral blood mononuclear cell lysate (Example 1); type: biochemical; conditions: for IC50: human PBMC lysate, pH 7.3, 2 hours at 37°C
T1 construct: endogenous in cells; host or cells: human peripheral blood mononuclear cells (lysate)
T1 sequence (P16278 29-677): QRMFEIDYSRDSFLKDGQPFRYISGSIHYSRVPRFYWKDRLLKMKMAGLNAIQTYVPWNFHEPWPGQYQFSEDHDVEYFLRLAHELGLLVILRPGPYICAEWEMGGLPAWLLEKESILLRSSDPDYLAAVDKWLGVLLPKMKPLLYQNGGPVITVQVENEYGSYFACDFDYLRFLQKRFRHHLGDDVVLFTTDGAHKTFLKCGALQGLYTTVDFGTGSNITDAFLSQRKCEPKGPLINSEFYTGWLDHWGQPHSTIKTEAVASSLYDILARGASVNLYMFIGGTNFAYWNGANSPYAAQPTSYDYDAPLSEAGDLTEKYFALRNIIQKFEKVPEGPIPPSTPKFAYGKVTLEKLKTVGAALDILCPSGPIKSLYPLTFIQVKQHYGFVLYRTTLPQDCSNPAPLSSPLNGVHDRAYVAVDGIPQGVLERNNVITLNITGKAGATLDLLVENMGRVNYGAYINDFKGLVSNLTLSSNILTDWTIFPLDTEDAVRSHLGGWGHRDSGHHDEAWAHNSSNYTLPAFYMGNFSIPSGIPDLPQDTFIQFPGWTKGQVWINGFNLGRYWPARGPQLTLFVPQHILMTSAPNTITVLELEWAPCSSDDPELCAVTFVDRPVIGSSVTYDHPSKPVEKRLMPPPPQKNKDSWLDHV
Description: (§1) Samples of human peripheral blood mononuclear cell lysate (2 x 10^6 cells per assay) were incubated with graded concentrations of compound N-nonyl-4-epi-isofagomine or 4-epi-isofagomine in 50 mM sodium phosphate, pH 7.3, supplemented with 1% Triton X-100 and protease inhibitors, and 0.8 mM of 4-methylumbelliferyl β-D-galactopyranoside. After an incubation of 2 hours at 37°C, the enzymatic reactions were stopped by the addition of 0.15 M glycine, pH 10.2, and fluorescence was measured at 445 nm using an excitation wavelength of 365 nm. The stock solutions of compound were at 20 mM in DMSO.
The results obtained with N-nonyl-4-epi-isofagomine (squares), 4-epi-isofagomine (triangles) and DMSO vehicle (circles) are presented on figure 1.

[2] = molecular target: T1, Beta-galactosidase; assay: Inhibition of wild type beta-galactosidase activity in human peripheral blood mononuclear cell lysate (Example 3); type: biochemical
Description: as §1, with “compound” for “compound N-nonyl-4-epi-isofagomine or 4-epi-isofagomine”, “25” for “50”, “0.5%” for “1%”, “nm.” for “nm. The stock solutions of compound were at 20 mM in DMSO.”

[3] = molecular target: T1, Beta-galactosidase; assay: Glycosidase specificity panel, beta-galactosidase from PBMC lysate (Example 4); type: biochemical
From the text: (§2) IC50 values indicated in table 1 are the concentrations of (2R,3R,4S,5R)-3-hydroxymethyl-2-pentylpiperidine-4,5-diol compound required to inhibit by half the different enzymatic activities.

[4] = molecular target: T2, Alpha-galactosidase (Homo sapiens, UniProt P06280); assay: Glycosidase specificity panel (Example 4); type: biochemical
T2 sequence (P06280 32-429): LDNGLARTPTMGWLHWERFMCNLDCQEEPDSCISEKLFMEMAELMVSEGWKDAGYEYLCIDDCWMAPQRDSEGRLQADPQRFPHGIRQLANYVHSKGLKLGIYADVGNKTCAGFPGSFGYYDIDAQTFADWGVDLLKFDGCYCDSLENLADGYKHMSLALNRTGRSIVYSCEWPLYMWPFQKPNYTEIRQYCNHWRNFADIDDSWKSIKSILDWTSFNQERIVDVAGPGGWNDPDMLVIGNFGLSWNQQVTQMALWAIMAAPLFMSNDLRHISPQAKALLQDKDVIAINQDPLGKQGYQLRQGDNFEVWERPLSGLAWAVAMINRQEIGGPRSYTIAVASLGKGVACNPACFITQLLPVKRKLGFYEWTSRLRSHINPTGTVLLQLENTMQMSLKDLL
From the text: as §2

[5] = molecular target: T3, Beta-glucuronidase (Homo sapiens, UniProt P08236); assay: Glycosidase specificity panel (Example 4); type: biochemical
T3 sequence (P08236 23-651): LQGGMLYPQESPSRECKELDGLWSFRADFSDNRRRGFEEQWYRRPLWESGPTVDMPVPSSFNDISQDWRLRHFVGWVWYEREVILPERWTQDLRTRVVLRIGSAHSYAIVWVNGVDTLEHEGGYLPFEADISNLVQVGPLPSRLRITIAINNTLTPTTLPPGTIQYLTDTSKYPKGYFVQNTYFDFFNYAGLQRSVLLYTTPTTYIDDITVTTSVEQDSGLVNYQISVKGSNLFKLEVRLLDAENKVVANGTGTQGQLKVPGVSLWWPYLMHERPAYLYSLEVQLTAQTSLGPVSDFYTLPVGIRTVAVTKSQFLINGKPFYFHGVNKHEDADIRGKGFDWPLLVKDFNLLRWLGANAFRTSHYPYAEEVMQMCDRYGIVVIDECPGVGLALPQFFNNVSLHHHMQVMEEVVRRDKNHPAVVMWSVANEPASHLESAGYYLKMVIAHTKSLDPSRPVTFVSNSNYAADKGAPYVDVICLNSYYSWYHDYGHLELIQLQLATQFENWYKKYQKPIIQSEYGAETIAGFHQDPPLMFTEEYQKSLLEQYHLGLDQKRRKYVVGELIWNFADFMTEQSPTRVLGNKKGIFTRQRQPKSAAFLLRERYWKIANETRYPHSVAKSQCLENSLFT
From the text: as §2

[6] = molecular target: Alpha-glucosidase; assay: Glycosidase specificity panel (Example 4); type: biochemical, Human
From the text: as §2

[7] = molecular target: Alpha-hexosaminidase; assay: Glycosidase specificity panel (Example 4); type: biochemical, Human
From the text: as §2

[8] = molecular target: Beta-glucosidase; assay: Glycosidase specificity panel (Example 4); type: biochemical, Human
From the text: as §2

[9] = molecular target: Beta-hexosaminidase; assay: Glycosidase specificity panel (Example 4); type: biochemical, Human
From the text: as §2

[10] = molecular target: T1, Beta-galactosidase; assay: Prevention of heat denaturation of beta-galactosidase in PBMC lysate at 48°C (Example 5); type: biochemical
From the text: The capacity of a compound of protecting an enzyme from denaturation predicts to some extent its pharmacological chaperone activity, i.e. its capacity of restoring enzymatic activity in patient cells exposed to the compound. The Applicant has evaluated whether (2R,3R,4S,5R)-3-hydroxymethyl-2-pentylpiperidine-4,5-diol can prevent heat denaturation of human beta-galactosidase following a procedure described by Suzuki et al 2014.
Samples of human peripheral blood mononuclear cell lysate (2 x 10^6 cells) in phosphate buffer, pH 7.3, 0.5% Triton X-100 and protease inhibitors were incubated at 48°C for 0, 5, 10, 20, and 40 minutes in the presence of graded concentrations of (2R,3R,4S,5R)-3-hydroxymethyl-2-pentylpiperidine-4,5-diol. The samples were then diluted in citrate buffer, pH 4.3, and 0.25 mM of 4-methylumbelliferyl β-D-galactopyranoside. After an incubation of 17 hours at 37°C, the reaction was stopped by the addition of glycine 0.15 M, pH 10.2. Fluorescence was determined at 445 nm using an excitation wavelength at 365 nm. The tested concentrations of (2R,3R,4S,5R)-3-hydroxymethyl-2-pentylpiperidine-4,5-diol, are 20 µM (square), 2 µM (triangle), 0.2 µM (diamond), 0.02 µM (circle) and 0 µM (line).

[11] = test system: mutated beta-galactosidase; assay: Increase of mutated beta-galactosidase activity in fibroblasts of GM1-gangliosidosis patients (Example 6); type: cell-based, human; conditions: 4 days
Description: GM02439 and GM05335 fibroblasts (Coriell Institute) were cultured for 4 days in the presence or the absence of 2 µM of (2R,3R,4S,5R)-3-hydroxymethyl-2-pentylpiperidine-4,5-diol. Cells were lysed in 100 mM sodium citrate, pH 4.8, supplemented with 1% Triton X-100 and protease inhibitors. B eta-galactosidase and beta-hexosaminidase activities were then determined in the cell lysates using fluorescence and colorimetric assays, respectively. Results presented are means of 4 values obtained from independent cultures. […] Hatched and empty bars: beta-galactosidase and beta-hexosaminidase activities, respectively.

[12] = test system: Beta-hexosaminidase; assay: Beta-hexosaminidase activity in fibroblasts of GM1-gangliosidosis patients (Example 6); type: cell-based, human; conditions: GM02439 and GM05335 fibroblasts, 2 µM, 4 days
Description: GM02439 and GM05335 fibroblasts (Coriell Institute) were cultured for 4 days in the presence or the absence of 2 µM of (2R,3R,4S,5R)-3-hydroxymethyl-2-pentylpiperidine-4,5-diol. Cells were lysed in 100 mM sodium citrate, pH 4.8, supplemented with 1% Triton X-100 and protease inhibitors. B eta-galactosidase and beta-hexosaminidase activities were then determined in the cell lysates using fluorescence and colorimetric assays, respectively. Results presented are means of 4 values obtained from independent cultures. Percent of deviation of each value is <30% from the mean. Hatched and empty bars: beta-galactosidase and beta-hexosaminidase activities, respectively.

[13] = human PBMC lysate, pH 7.3, 2 hours at 37°C, Example 3, read-out: IC50

In the case of `OC[C@H]1CNC[C@@H](O)[C@H]1O` [4-epi-isofagomine], the IC50 [1] is reported as 0.07 µM and the IC50 [2] is reported as 0.8 µM.

With `CCCCCCCCCN1CC(O)C(O)C(CO)C1` (stereo not drawn) [N-nonyl-4-epi-isofagomine] the “fold less inhibitory on human beta-galactosidase than 4-epi-isofagomine” value [1] was 140 fold and the IC50 [1] was 10 µM.

`CCCCC[C@H]1NC[C@@H](O)[C@@H](O)[C@H]1CO` [(2R,3R,4S,5R)-3-Hydroxymethyl-2-pentylpiperidine-4,5-diol] was tested, and the IC50 [2, 13] was 0.01 µM, the IC50 [3] was 0.02 µM and the IC50 [4] was 150 µM. For the same compound, the IC50 [5] was greater than 160 µM, the IC50 [6] was greater than 160 µM and the IC50 [7] was greater than 160 µM. The IC50 [8] was 60 µM, the IC50 [9] was greater than 160 µM and the activity at 0.02 µM ([10]; 0 minute) was 100%. The activity at 0.02 µM ([10]; 5 minutes) was 70%, the activity at 0.02 µM ([10]; 10 minutes) was 46% and the activity at 0.02 µM ([10]; 20 minutes) was 23%. It also gave an activity at 0.02 µM ([10]; 40 minutes) of 11%, an activity at 0.2 µM ([10]; 0 minute) of 100% and an activity at 0.2 µM ([10]; 5 minutes) of 81%. It also gave an activity at 0.2 µM ([10]; 10 minutes) of 72%, an activity at 0.2 µM ([10]; 20 minutes) of 56% and an activity at 0.2 µM ([10]; 40 minutes) of 33%. The “time to loss of 50% of the beta-galactosidase activity” value ([10]; 2 µM) was greater than 40 min, the activity at 2 µM ([10]; 2 µM, 0 minute) was 100% and the activity at 2 µM ([10]; 2 µM, 5 minutes) was 82%. It also gave an activity at 2 µM ([10]; 2 µM, 10 minutes) of 84%, an activity at 2 µM ([10]; 2 µM, 20 minutes) of 73% and an activity at 2 µM ([10]; 2 µM, 40 minutes) of 70%. For the same compound, the “time to loss of 50% of the beta-galactosidase activity” value ([10]; 20 µM) was greater than 40 min, the activity at 20 µM ([10]; 20 µM, 0 minute) was 100% and the activity at 20 µM ([10]; 20 µM, 5 minutes) was 93%. For the same compound, the activity at 20 µM ([10]; 20 µM, 10 minutes) was 95%, the activity at 20 µM ([10]; 20 µM, 20 minutes) was 85% and the activity at 20 µM ([10]; 20 µM, 40 minutes) was 87%. For the same compound, the “increase of mutated beta-galactosidase activity relative to untreated cells” value ([11]; infantile GM1-gangliosidosis cell line GM05335, 2 µM) was 19 fold, the “increase of mutated beta-galactosidase activity relative to untreated cells” value ([11]; juvenile GM1-gangliosidosis cell line GM02439, 2 µM) was 6.5 fold and the “increase of the beta-hexosaminidase activity” value [12] was “no increase”.

`CCCCCC1NCC(O)[C@@H](O)[C@H]1CO` (stereo in doubt) [(2R,3R,4S,5S)-3-hydroxymethyl-2-pentylpiperidine-4,5-diol] was tested, and the “fold less potent than (2R,3R,4S,5R) isomer” value ([2]; Example 3) was 150 fold and the IC50 [2, 13] was 1.5 µM.
